Tests used:
[1] = target: T1, G12D-mutant human KRAS (amino acid residues 1-188) (Homo sapiens, UniProt P01116, G12D); experiment: KRAS Binding Disruption Assay (AlphaScreen; biotinylated KRpep-2d analogue or RAF1-RBD), G12D; conditions: KRAS G12D; geometric mean; read-out: KRAS GMean IC50 (uM) MUTATION: G12D
T1 construct: G12D or G12C-mutant human KRAS (amino acid residues 1-188) with FLAG tag; made in house; host or cells: E. coli
How it was run: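 Displacement format with mutant KRAS, biotinylated KRpep-2d analogue or RAF1-RBD (5-20 nM each) at pH 7.5 with 5 mM MgCl2.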

[2] = target: T2, G12V-mutant human KRAS (amino acid residues 1-188) (Homo sapiens, UniProt P01116, G12V); experiment: KRAS Binding Competition Assay (AlphaScreen; biotinylated KRpep-2d analogue), G12V; conditions: geometric mean, read-out: KRAS GMean IC50 (uM) MUTATION: G12V
T2 construct: G12V-mutant human KRAS (amino acid residues 1-188) with FLAG tag was purified from E. coli; made in house; host or cells: E. coli

Molecule `CN1CCC[C@H]1COc1nc(N2C[C@H]3CC[C@@H](C2)N3C(=O)CCn2ccnc2)c2ccc(-c3cc(O)cc4ccccc34)cc2n1` [P-0382, 1-((1R,5S)-3-(7-(3-hydroxynaphthalen-1-yl)-2-(((S)-1-methylpyrrolidin-2-yl)methoxy)quinazolin-4-yl)-3,8-diazabicyclo[3.2.1]octan-8-yl)-3-(1H-imidazol-1-yl)propan-1-one] has an IC50 [1] of 0.0001 to 10 µM and an IC50 [2] of 0.0001 to 10 µM.

In the case of `CN1CCC[C@H]1COc1nc(N2C[C@H]3CC[C@@H](C2)N3C(=O)CCC#N)c2ccc(-c3cc(O)cc4ccccc34)cc2n1` [P-0383, 4-((1R,5S)-3-(7-(3-hydroxynaphthalen-1-yl)-2-(((S)-1-methylpyrrolidin-2-yl)methoxy)quinazolin-4-yl)-3,8-diazabicyclo[3.2.1]octan-8-yl)-4-oxobutanenitrile], the IC50 [1] is reported as 10 to 100 µM and the IC50 [2] is reported as 0.0001 to 10 µM.

For `CN1CCC[C@H]1COc1nc(N2C[C@H]3CC[C@@H](C2)N3)c2ccc(-c3cc(O)c(F)c4ccccc34)cc2n1` [P-0385, 4-(4-((1R,5S)-3,8-diazabicyclo[3.2.1]octan-3-yl)-2-(((S)-1-methylpyrrolidin-2-yl)methoxy)quinazolin-7-yl)-1-fluoronaphthalen-2-ol], the IC50 [1] was 0.0001 to 10 µM and the IC50 [2] was 10 to 100 µM.

`CN1C(=O)C(CC(=O)N2[C@@H]3CC[C@H]2CN(c2nc(OCC45CCCN4CCC5)nc4c(F)c(-c5cc(O)cc6ccccc56)ccc24)C3)N(C)C1=O` (stereo partly drawn) [P-0386, 5-(2-((1R,5S)-3-(8-fluoro-7-(3-hydroxynaphthalen-1-yl)-2-((tetrahydro-1H-pyrrolizin-7a(5H)-yl)methoxy)quinazolin-4-yl)-3,8-diazabicyclo[3.2.1]octan-8-yl)-2-oxoethyl)-1,3-dimethylimidazolidine-2,4-dione] was tested, and the IC50 [1] was 0.0001 to 10 µM and the IC50 [2] was 0.0001 to 10 µM.

`Cc1[nH][nH]c(=O)c1CC(=O)N1[C@@H]2CC[C@H]1CN(c1nc(OCC34CCCN3CCC4)nc3c(F)c(-c4cc(O)cc5ccccc45)ccc13)C2` [P-0388, 4-(2-((1R,5S)-3-(8-fluoro-7-(3-hydroxynaphthalen-1-yl)-2-((tetrahydro-1H-pyrrolizin-7a(5H)-yl)methoxy)quinazolin-4-yl)-3,8-diazabicyclo[3.2.1]octan-8-yl)-2-oxoethyl)-5-methyl-1,2-dihydro-3H-pyrazol-3-one] showed an IC50 [1] of 0.0001 to 10 µM and an IC50 [2] of 0.0001 to 10 µM.

Work on `O=[N+]([O-])c1ccc(COc2nc(N3C[C@H]4CC[C@@H](C3)N4)c3cc(Cl)c(-c4c(O)cccc4F)c(F)c3n2)cc1` [P-0389, 2-(4-((1R,5S)-3,8-diazabicyclo[3.2.1]octan-3-yl)-6-chloro-8-fluoro-2-((4-nitrobenzyl)oxy)quinazolin-7-yl)-3-fluorophenol] yielded an IC50 [1] of 0.0001 to 10 µM and an IC50 [2] of 10 to 100 µM.

With `CN(C)c1cccc(Oc2nc(N3C[C@H]4CC[C@@H](C3)N4)c3cc(Cl)c(-c4c(O)cccc4F)c(F)c3n2)c1` [P-0390, 2-(4-((1R,5S)-3,8-diazabicyclo[3.2.1]octan-3-yl)-6-chloro-2-(3-(dimethylamino)phenoxy)-8-fluoroquinazolin-7-yl)-3-fluorophenol] the IC50 [1] was 0.0001 to 10 µM and the IC50 [2] was 0.0001 to 10 µM.

Work on `CN(C)c1ccc(Nc2nc(N3C[C@H]4CC[C@@H](C3)N4)c3cc(Cl)c(-c4c(O)cccc4F)c(F)c3n2)cc1` [P-0391, 2-(4-((1R,5S)-3,8-diazabicyclo[3.2.1]octan-3-yl)-6-chloro-2-((4-(dimethylamino)phenyl)amino)-8-fluoroquinazolin-7-yl)-3-fluorophenol] yielded an IC50 [1] of 0.0001 to 10 µM and an IC50 [2] of 0.0001 to 10 µM.

For `Oc1cccc(F)c1-c1c(Cl)cc2c(N3C[C@H]4CC[C@@H](C3)N4)nc(OCC34CCCN3CCC4)nc2c1F` [P-0392, 2-(4-((1R,5S)-3,8-diazabicyclo[3.2.1]octan-3-yl)-6-chloro-8-fluoro-2-((tetrahydro-1H-pyrrolizin-7a(5H)-yl)methoxy)quinazolin-7-yl)-3-fluorophenol], the IC50 [1] was 0.0001 to 10 µM and the IC50 [2] was 10 to 100 µM.

`CN1CCC[C@H]1COc1nc(N2C[C@H]3CC[C@@H](C2)N3C(=O)CCCn2ccnc2)c2ccc(-c3cc(O)cc4ccccc34)c(F)c2n1` [P-0393, 1-((1R,5S)-3-(8-fluoro-7-(3-hydroxynaphthalen-1-yl)-2-(((S)-1-methylpyrrolidin-2-yl)methoxy)quinazolin-4-yl)-3,8-diazabicyclo[3.2.1]octan-8-yl)-4-(1H-imidazol-1-yl)butan-1-one] gave an IC50 [1] of 0.0001 to 10 µM and an IC50 [2] of 0.0001 to 10 µM.

For `C[C@H](O)C(=O)N1[C@@H]2CC[C@H]1CN(c1nc(OC[C@@H]3CCCN3C)nc3c(F)c(-c4cc(O)cc5ccccc45)ccc13)C2` [P-0394, (S)-1-((1R,5S)-3-(8-fluoro-7-(3-hydroxynaphthalen-1-yl)-2-(((S)-1-methylpyrrolidin-2-yl)methoxy)quinazolin-4-yl)-3,8-diazabicyclo[3.2.1]octan-8-yl)-2-hydroxypropan-1-one], the IC50 [1] was 0.0001 to 10 µM and the IC50 [2] was 0.0001 to 10 µM.

For `C[C@@H](O)C(=O)N1[C@@H]2CC[C@H]1CN(c1nc(OC[C@@H]3CCCN3C)nc3c(F)c(-c4cc(O)cc5ccccc45)ccc13)C2` [P-0395, (R)-1-((1R,5S)-3-(8-fluoro-7-(3-hydroxynaphthalen-1-yl)-2-(((S)-1-methylpyrrolidin-2-yl)methoxy)quinazolin-4-yl)-3,8-diazabicyclo[3.2.1]octan-8-yl)-2-hydroxypropan-1-one], the IC50 [1] was 0.0001 to 10 µM and the IC50 [2] was 0.0001 to 10 µM.

Work on `CN1CCC[C@H]1COc1nc(N2C[C@H]3CC[C@@H](C2)N3C(=O)C2CCC(=O)N2)c2ccc(-c3cc(O)cc4ccccc34)c(F)c2n1` (stereo partly drawn) [P-0396, 5-((1R,5S)-3-(8-fluoro-7-(3-hydroxynaphthalen-1-yl)-2-(((S)-1-methylpyrrolidin-2-yl)methoxy)quinazolin-4-yl)-3,8-diazabicyclo[3.2.1]octane-8-carbonyl)pyrrolidin-2-one] yielded an IC50 [1] of 0.0001 to 10 µM and an IC50 [2] of 0.0001 to 10 µM.

In the case of `CN1CCC[C@H]1COc1nc(N2C[C@H]3CC[C@@H](C2)N3C(=O)CC(N)=O)c2ccc(-c3cc(O)cc4ccccc34)c(F)c2n1` [P-0398, 3-((1R,5S)-3-(8-fluoro-7-(3-hydroxynaphthalen-1-yl)-2-(((S)-1-methylpyrrolidin-2-yl)methoxy)quinazolin-4-yl)-3,8-diazabicyclo[3.2.1]octan-8-yl)-3-oxopropanamide], the IC50 [1] is reported as 0.0001 to 10 µM and the IC50 [2] is reported as 0.0001 to 10 µM.

`CN1CCC[C@H]1COc1nc(N2C[C@H]3CC[C@@H](C2)N3C(=O)CCC(N)=O)c2ccc(-c3cc(O)cc4ccccc34)c(F)c2n1` [P-0399, 4-((1R,5S)-3-(8-fluoro-7-(3-hydroxynaphthalen-1-yl)-2-(((S)-1-methylpyrrolidin-2-yl)methoxy)quinazolin-4-yl)-3,8-diazabicyclo[3.2.1]octan-8-yl)-4-oxobutanamide] gave an IC50 [1] of 0.0001 to 10 µM and an IC50 [2] of 0.0001 to 10 µM.

Molecule `CN1CCC[C@H]1COc1nc(N2C[C@H]3CC[C@@H](C2)N3C(=O)C(=O)Nc2ccccn2)c2ccc(-c3cc(O)cc4ccccc34)c(F)c2n1` [P-0400, 2-((1R,5S)-3-(8-fluoro-7-(3-hydroxynaphthalen-1-yl)-2-(((S)-1-methylpyrrolidin-2-yl)methoxy)quinazolin-4-yl)-3,8-diazabicyclo[3.2.1]octan-8-yl)-2-oxo-N-(pyridin-2-yl)acetamide] has an IC50 [1] of 0.0001 to 10 µM and an IC50 [2] of 0.0001 to 10 µM.

`CN1CCC[C@H]1COc1nc(N2C[C@H]3CC[C@@H](C2)N3C(=O)Cn2ccnc2)c2ccc(-c3cc(O)cc4ccccc34)c(F)c2n1` [P-0401, 1-((1R,5S)-3-(8-fluoro-7-(3-hydroxynaphthalen-1-yl)-2-(((S)-1-methylpyrrolidin-2-yl)methoxy)quinazolin-4-yl)-3,8-diazabicyclo[3.2.1]octan-8-yl)-2-(1H-imidazol-1-yl)ethan-1-one] showed an IC50 [1] of 0.0001 to 10 µM and an IC50 [2] of 0.0001 to 10 µM.

In the case of `CN1CCC[C@H]1COc1nc(N2C[C@H]3CC[C@@H](C2)N3C(=O)Cc2cnn(C)c2)c2ccc(-c3cc(O)cc4ccccc34)c(F)c2n1` [P-0402, 1-((1R,5S)-3-(8-fluoro-7-(3-hydroxynaphthalen-1-yl)-2-(((S)-1-methylpyrrolidin-2-yl)methoxy)quinazolin-4-yl)-3,8-diazabicyclo[3.2.1]octan-8-yl)-2-(1-methyl-1H-pyrazol-4-yl)ethan-1-one], the IC50 [1] is reported as 0.0001 to 10 µM and the IC50 [2] is reported as 0.0001 to 10 µM.

`CN1CCC[C@H]1COc1nc(N2C[C@H]3CC[C@@H](C2)N3C(=O)[C@H]2CCCN2)c2ccc(-c3cc(O)cc4ccccc34)c(F)c2n1` [P-0403, 4-((1R,5S)-8-(D-prolyl)-3,8-diazabicyclo[3.2.1]octan-3-yl)-8-fluoro-7-(3-hydroxynaphthalen-1-yl)-2-(((S)-1-methylpyrrolidin-2-yl)methoxy)quinazoline] was tested, and the IC50 [1] was 0.0001 to 10 µM and the IC50 [2] was 10 to 100 µM.

With `CN1CCC[C@H]1COc1nc(N2C[C@H]3CC[C@@H](C2)N3C(=O)C(O)CO)c2ccc(-c3cc(O)cc4ccccc34)c(F)c2n1` (stereo partly drawn) [P-0404, 1-((1R,5S)-3-(8-fluoro-7-(3-hydroxynaphthalen-1-yl)-2-(((S)-1-methylpyrrolidin-2-yl)methoxy)quinazolin-4-yl)-3,8-diazabicyclo[3.2.1]octan-8-yl)-2,3-dihydroxypropan-1-one] the IC50 [1] was 0.0001 to 10 µM and the IC50 [2] was 10 to 100 µM.

Work on `CN1CCC[C@H]1COc1nc(N2C[C@H]3CC[C@@H](C2)N3S(=O)(=O)N[C@@H]2CCNC2)c2ccc(-c3cc(O)cc4ccccc34)c(F)c2n1` [P-0405, (1R,5S)-3-(8-fluoro-7-(3-hydroxynaphthalen-1-yl)-2-(((S)-1-methylpyrrolidin-2-yl)methoxy)quinazolin-4-yl)-N-((R)-pyrrolidin-3-yl)-3,8-diazabicyclo[3.2.1]octane-8-sulfonamide] yielded an IC50 [1] of 0.0001 to 10 µM and an IC50 [2] of 10 to 100 µM.
